Assay results taken from patent US8513381B2, “Melanocortin analogs with antimicrobial activity” (Fondazione IRCCS Ca' Granda-Ospedale Maggiore Policlinico, priority 2009, dated 2013).
Values after ≈ are worked out from the molar mass of the structure shown. Where two headings read alike, the source gives them in different places. Non-standard residues stand in square brackets, D forms with d. Residues, ends and D or L forms follow the SMILES beside them. d2Nal = N[C@H](Cc1ccc2ccccc2c1)C(=O)O; Tle = CC(C)(C)[C@H](N)C(=O)O; Ac6c = NC1(C(=O)O)CCCCC1; Ac5c = NC1(C(=O)O)CCCC1; Ac4c = NC1(C(=O)O)CCC1; Aib = CC(C)(N)C(=O)O

What was measured:
C. glabrata = format: cell-based, Candida glabrata
Protocol: (§1) Two Candida albicans isolates were purchased from the ATCC (No. 24433 and 76615). The other yeast isolates were obtained from the collection of Fondazione Ospedale Maggiore Policlinico, Mangiagalli e Regina Elena, Milano. The collection included C. albicans (7 isolates), C. glabrata (3 isolates), and C. krusei (3 isolates). Antifungal susceptibility testing was performed using the broth microdilution method according to the NCCLS M27-A guidelines (National Committee for Clinical Laboratory Standards. 1997, Reference method for broth dilution antifungal susceptibility testing of yeasts and approved standard NCCLS document M27-A. National Committee for Clinical Laboratory Standards, Wayne, Pa.). The organisms were removed from frozen glycerol stock (10% sterile glycerol suspensions stored at −70° C.), subcultured onto Sabouraud's dextrose plates, and incubated at 35° C. After 48 h of incubation, the plates were inspected for purity. To prepare stationary growth phase yeast, a colony was taken from the agar plate and transferred into 5 mL Sabouraud-dextrose broth and incubated for 48 h at 35° C. Cells were centrifuged at 1,000×g for 10 min and the pellet was washed twice with distilled water. Cells were counted and suspended in RPMI 1640 medium buffered to pH 7.0 with 0.165 mol l^−1 morpholinepropanesulphonic acid (MOPS) buffer (Sigma) to obtain the two times test inoculum (1×10^3 to 5×10^3 CFU/mL). Each well of 96 U-shaped well-plates received 100 μl of each antifungal peptides in concentrations from 10^−4 to 7.8×10^−7 M and 100 μl of the two-times inoculum to a final yeast concentration of 0.5×10−[…] cells ml^−1
(§2) The MIC90, i.e. the minimum inhibitory concentrations endpoint determined as 90% reduction in turbidity measured using a spectrophotometer (Titertek multiscan at 690 nm wave length).

C. krusei = format: cell-based, Candida krusei
Protocol: as §1, §2

C. albicans = format: cell-based, Candida albicans
Protocol: as §1, §2

Compound | MIC 90 at 48 hours (C. glabrata; C. glabrata 18012, 35° C.) | MIC 90 at 48 hours (C. glabrata; C. glabrata 995651, 35° C.) | MIC 90 at 48 hours (C. glabrata; C. glabrata 995667, 35° C.) | MIC 90 at 48 hours (C. krusei) | MIC 90 at 48 hours (C. albicans) | MIC 90 at 48 hours (C. albicans; C. albicans 000954, 35° C.) | MIC 90 at 48 hours (C. albicans; C. albicans 983201-R1, 35° C.) | MIC 90 at 48 hours (C. albicans; C. albicans 991185, 35° C.) | MIC 90 at 48 hours (C. albicans; C. albicans 994199, 35° C.) | MIC 90 at 48 hours (C. albicans; C. albicans 995147, 35° C.) | MIC 90 at 48 hours (C. albicans; C. albicans 995439, 35° C.) | MIC 90 at 48 hours (C. albicans; C. albicans ATCC 24433, 35° C.) | MIC 90 at 48 hours (C. albicans; C. albicans ATCC 76615, 35° C.) | MIC 90 at 48 hours (C. krusei; C. krusei 995668, 35° C.) | MIC 90 at 48 hours (C. albicans; C. albicans 011587, 35° C.) | MIC 90 at 48 hours (C. krusei; C. krusei 004490, 35° C.) | MIC 90 at 48 hours (C. krusei; C. krusei 991388, 35° C.)
CC(C)[C@H](NC(=O)[C@H](Cc1ccccc1)NC(=O)[C@H](CCCCN)NC(=O)C(C)(C)NC(=O)[C@H](Cc1c[nH]c2ccccc12)NC(=O)[C@H](CCCNC(=N)N)NC(=O)[C@@H](Cc1ccc2ccccc2c1)NC(=O)[C@@H](N)Cc1c[nH]cn1)C(N)=O [MSH0702, H-His-D(2)-Nal-Arg-Trp-Aib-Lys-Phe-Val-NH2] (H-H[d2Nal]RW[Aib]KFV-NH2) | no | no | no | 115 µg/mL (≈ 99.7 µM) | 115 µg/mL (≈ 99.7 µM) | no | no | no | no | no | no | no | no | – | – | – | –
CC(C)[C@H](NC(=O)[C@H](Cc1ccccc1)NC(=O)[C@H](CCCCN)NC(=O)C1(NC(=O)[C@H](Cc2c[nH]c3ccccc23)NC(=O)[C@H](CCCNC(=N)N)NC(=O)[C@@H](Cc2ccc3ccccc3c2)NC(=O)[C@@H](N)Cc2c[nH]cn2)CCCC1)C(N)=O [MSH0705, H-His-D(2)-Nal-Arg-Trp-Cpa-Lys-Phe-Val-NH2] (H-H[d2Nal]RW[Ac5c]KFV-NH2) | no | no | no | 117 µg/mL (≈ 99.2 µM) | – | – | – | – | – | – | – | – | – | – | – | – | –
CC(C)[C@H](NC(=O)[C@H](Cc1ccccc1)NC(=O)[C@H](CCCCN)NC(=O)[C@@H](NC(=O)[C@H](Cc1c[nH]c2ccccc12)NC(=O)[C@H](CCCNC(=N)N)NC(=O)[C@@H](Cc1ccc2ccccc2c1)NC(=O)[C@@H](N)Cc1c[nH]cn1)C(C)(C)C)C(N)=O [MSH0707, H-His-D(2)-Nal-Arg-Trp-tBuGly-Lys-Phe-Val-NH2] (H-H[d2Nal]RW[Tle]KFV-NH2) | no | no | no | 118 µg/mL (≈ 99.9 µM) | 118 µg/mL (≈ 99.9 µM) | no | no | no | no | no | – | no | no | no | no | – | –
CC(C)[C@H](NC(=O)[C@H](Cc1ccccc1)NC(=O)[C@H](CCCCN)NC(=O)C1(NC(=O)[C@H](Cc2c[nH]c3ccccc23)NC(=O)[C@H](CCCNC(=N)N)NC(=O)[C@@H](Cc2ccc3ccccc3c2)NC(=O)[C@@H](N)Cc2c[nH]cn2)CCC1)C(N)=O [MSH0709, H-His-D(2)-Nal-Arg-Trp-Cybu-Lys-Phe-Val-NH2] (H-H[d2Nal]RW[Ac4c]KFV-NH2) | no | no | no | 117 µg/mL (≈ 100 µM) | 117 µg/mL (≈ 100 µM) | no | no | – | – | no | – | no | no | – | – | – | –
CC(C)[C@H](NC(=O)[C@H](Cc1ccccc1)NC(=O)[C@H](CCCCN)NC(=O)C1(NC(=O)[C@H](Cc2c[nH]c3ccccc23)NC(=O)[C@H](CCCNC(=N)N)NC(=O)[C@@H](Cc2ccc3ccccc3c2)NC(=O)[C@@H](N)Cc2c[nH]cn2)CCCCC1)C(N)=O [MSH0712, H-His-D(2)-Nal-Arg-Trp-Aoca-Lys-Phe-Val-NH2] (H-H[d2Nal]RW[Ac6c]KFV-NH2) | no | no | no | – | 60 µg/mL (≈ 50.3 µM) | – | – | – | – | – | – | – | – | – | – | – | –
CC(C)[C@H](NC(=O)[C@H](Cc1ccccc1)NC(=O)[C@H](CCCCN)NC(=O)[C@H](Cc1ccccc1)NC(=O)[C@H](Cc1c[nH]c2ccccc12)NC(=O)[C@H](CCCNC(=N)N)NC(=O)[C@@H](Cc1ccc2ccccc2c1)NC(=O)[C@@H](N)Cc1c[nH]cn1)C(N)=O [MSH0713, H-His-D(2)-Nal-Arg-Trp-Phe-Lys-Phe-Val-NH2] (H-H[d2Nal]RWFKFV-NH2) | no | no | no | 122 µg/mL (≈ 100 µM) | – | – | – | – | – | – | – | – | – | no | – | – | –
H-His-D(2)-Nal-Arg-Trp-Acpc-Lys-Phe-Val-NH2 [MSH0706] | no | no | – | – | – | no | no | no | no | no | no | no | no | no | no | no | no
H-His-D(2)-Nal-Arg-Trp-Ala-Lys-Phe-Val-NH2 [MSH0703] | no | no | no | – | – | no | no | no | no | no | no | no | no | no | no | no | no
H-His-D(2)-Nal-Arg-Trp-Gly-Gly-Lys-Phe-Val-NH2 [MSH0701] | no | no | no | – | – | no | no | no | no | no | no | no | no | no | no | no | no
H-His-D(2)-Nal-Arg-Trp-β-AA-Lys-Phe-Val-NH2 [MSH0710] | no | no | no | – | – | no | no | no | no | no | no | no | no | no | no | no | no
